Experimental data as given in publication PMC10256202, “Allosteric regulation of Senecavirus A 3C^pro proteolytic activity by an endogenous phospholipid” (PLOS Pathogens, 2023).

Molecular target: T1, SVA 3C^pro (Seneca Valley virus USA/SSV-001, UniProt Q155Z9)
T1 construct: full-length mature 3C cut from the genome polyprotein; codon-optimized, E. coli BL21(DE3); N-terminal His6-SUMO tag removed by ULP1 (lipid strips: His-tagged protein)
Assay: CL-specific ELISA of lipid co-purified with the protein
Settings: endogenous E. coli lipid extracted by heating; lipid-binding (allosteric) site

T1 sequence (Q155Z9 1509-1719): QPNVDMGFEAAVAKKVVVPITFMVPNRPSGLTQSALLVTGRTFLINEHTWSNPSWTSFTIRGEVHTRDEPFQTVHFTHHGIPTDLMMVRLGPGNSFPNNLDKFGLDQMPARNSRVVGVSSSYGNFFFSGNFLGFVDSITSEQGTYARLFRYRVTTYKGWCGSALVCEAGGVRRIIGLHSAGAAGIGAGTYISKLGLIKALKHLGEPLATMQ

cardiolipin [CL]
lipid content: ~ 24.2 μg/L
